Results: ChEMBL document CHEMBL3045358, “Synthesis of kojic acid-derived copper-chelating apoptosis inducing agents” (2013)
Calls of active or inactive are those of the source. No cut-off for these calls is given here.

Tests used:
[1] = tested on: HeLa; assay: Antiproliferative activity against Homo sapiens (human) HeLa cells assessed as growth inhibition at 25 uM after 48 hr by MTT assay; format: functional, cell-based
[2] = tested on: HeLa; assay: Induction of cell cycle arrest in Homo sapiens (human) HeLa cells assessed as accumulation of cells at sub-G1 phase at 25 uM after 24 hr by propidium iodide staining based flow cytometry (reference value: 3.41%); format: functional
[3] = tested on: HeLa; assay: Antiproliferative activity against Homo sapiens (human) HeLa cells assessed as growth inhibition at 25 uM after 48 hr by MTT assay in presence of 50 uM CuCl2; format: functional
[4] = tested on: HeLa; assay: Induction of cell cycle arrest in Homo sapiens (human) HeLa cells assessed as accumulation of cells at sub-G1 phase at 25 uM after 24 hr by propidium iodide staining based flow cytometry in presence of 50 uM CuCl2 (reference value: 3.22%); format: functional
[5] = tested on: HeLa; assay: Induction of cell cycle arrest in Homo sapiens (human) HeLa cells assessed as accumulation of cells at sub-G1 phase at 5 uM after 24 hr by propidium iodide staining based flow cytometry in presence of 50 uM CuCl2 (reference value: 3.22%); format: functional
[6] = tested on: HeLa; assay: Induction of cell cycle arrest in Homo sapiens (human) HeLa cells assessed as accumulation of cells at sub-G1 phase at 15 uM after 24 hr by propidium iodide staining based flow cytometry in presence of 50 uM CuCl2 (reference value: 3.22%); format: functional
[7] = tested on: HeLa; assay: Induction of cell cycle arrest in Homo sapiens (human) HeLa cells assessed as accumulation of cells at sub-G1 phase at 15 uM after 24 hr by propidium iodide staining based flow cytometry (reference value: 3.41%); format: functional
[8] = tested on: HeLa; assay: Induction of apoptosis in Homo sapiens (human) HeLa cells assessed as decrease in 32 kDa procaspase-3 level at 15 uM after 24 hr by Western blot analysis in presence of 50 uM CuCl2; format: functional, cell-based
[9] = tested on: HeLa; assay: Induction of apoptosis in Homo sapiens (human) HeLa cells assessed as PARP cleavage at 15 uM after 24 hr by Western blot analysis in presence of 50 uM CuCl2; format: functional, cell-based
[10] = tested on: HeLa; assay: Induction of cell cycle arrest in Homo sapiens (human) HeLa cells assessed as accumulation of cells at sub-G1 phase at 5 uM after 24 hr by propidium iodide staining based flow cytometry (reference value: 3.41%); format: functional
[11] = tested on: HeLa; assay: Antiproliferative activity against Homo sapiens (human) HeLa cells assessed as growth inhibition after 48 hr by MTT assay in presence of 50 uM CuCl2; format: functional
[12] = biological target: MAP kinase p38 (Homo sapiens) (UniProt O15264+Q15759+Q16539+P53778); assay: Increase in p38 MAPK phosphorylation in Homo sapiens (human) HeLa cells at 15 uM after 24 hr by Western blot analysis in presence of 50 uM CuCl2; format: cell-based
[13] = tested on: HeLa; assay: Increase in ERK phosphorylation in Homo sapiens (human) HeLa cells at 15 uM after 24 hr by Western blot analysis in presence of 50 uM CuCl2; format: cell-based
[14] = tested on: HeLa; assay: Antiproliferative activity against Homo sapiens (human) HeLa cells assessed as growth inhibition at 75 uM after 48 hr by MTT assay; format: functional; conditions: read-out: GI
[15] = tested on: HeLa; assay: Antiproliferative activity against Homo sapiens (human) HeLa cells assessed as growth inhibition after 48 hr by MTT assay; format: functional

`O=c1cc(CO)occ1O` [KOJIC ACID] was tested, and the “growth inhibition (GI)” value [1] was “inactive”, the Activity [2] was 2.16% and the “growth inhibition (GI)” value [3] was “inactive”. For the same molecule, the Activity [4] was 3.57%.

`COc1ccc(COc2coc(/C=C/c3ccccc3)cc2=O)cc1` was tested, and the “growth inhibition (GI)” value [3] was “inactive”.

In the case of `O=c1cc(/C=C/c2ccc(O)c(O)c2)occ1O`, the “growth inhibition (GI)” value [1] is reported as “inactive” and the “growth inhibition (GI)” value [3] is reported as “inactive”.

In the case of `O=c1cc(COc2cccc3cccnc23)occ1O`, the “growth inhibition (GI)” value [1] is reported as “inactive”, the Activity [5] is reported as 11.58% and the Activity [6] is reported as 48.56%. The Activity [7] was 5.85%, the Activity [8] was “Active” and the “growth inhibition (GI)” value [3] was 95%. The Activity [9] was “Active”, the Activity [10] was 5.09% and the GI50 [11] was 7.1 µM. The Activity [12] was “Active”, the Activity [13] was “Active” and the inhibition of growth at 75 µM [14] was 15.2%.

In the case of `O=c1cc(CN2CCN(S(=O)(=O)c3ccccc3)CC2)occ1O`, the “growth inhibition (GI)” value [3] is reported as 35%.

With `O=c1cc(/C=C/c2ccccc2)occ1O` the “growth inhibition (GI)” value [1] was “inactive”, the GI50 [15] was 64.5 µM and the “growth inhibition (GI)” value [3] was 90%. For the same molecule, the GI50 [11] was 11.9 µM.

`O=c1cc(COc2cccc(O)c2)occ1O` was tested, and the “growth inhibition (GI)” value [1] was “inactive” and the “growth inhibition (GI)” value [3] was “inactive”.
